This note sets out measurements from patent publication US20240300900A1, “HYDROPHILIC AZADIBENZOCYCLOOCTYNE DERIVATIVES AND METAL-FREE CLICK REACTIONS WITH THESE HYDROPHILIC AZADIBENZOCYCLOOCTYNE DERIVATIVES” (Roche Diagnostics Operations, Inc., priority 2021, published 2024).

The nature of data set [1]: Solubility experiments: successive mixing with water, visual inspection. Format: physicochemical. The settings on record: sonicated 10 s. An excerpt:
If solid compound was still visible, this was considered as not dissolved. If no solid compound was visible, this was considered as dissolved.

Data set [2] can be described thus: Hydrophobicity indicated by reverse phase HPLC (YMC-Triart C18). The settings on record: YMC-Triart C18, 0-100% MeCN in H2O, 0.1% TFA in 25 min; later retention = more hydrophobic. It is filed as physicochemical. The text has this:
The other way round, an earlier retention corresponded to higher hydrophilie.

The mark [3] stands for this setting: theoretical concentration 0.6 mM.
Where [4] appears, read: theoretical concentration 6.0 mM.
[5] abbreviates: theoretical concentration 12.4 mM.
Setting [6] is: theoretical concentration 16.5 mM.
Where [7] appears, read: theoretical concentration 515 mM.

On to `O=C(CCC(=O)N1Cc2ccccc2C#Cc2ccccc21)ON1C(=O)CCC1=O` [Compound 32], for which the “dissolved in water (visual inspection)” value in data set [1] (setting [3]), in data set [1] (setting [4]), in data set [1] (setting [5]), in data set [1] (setting [6]) and in data set [1] (setting [7]) was “no” throughout.

`O=C(O)CCCNC(=O)CCCC(=O)N1Cc2cc(OC[C@@H](O)CO)ccc2C#Cc2ccc(OC[C@@H](O)CO)cc21` [Compound 7]: the “Retention Time” value in data set [2] worked out at 11.58 min.

For the molecule `O=C(CCCC(=O)N1Cc2cc(OC[C@@H](O)CO)ccc2C#Cc2ccc(OC[C@@H](O)CO)cc21)NCCCC(=O)ON1C(=O)CCC1=O` [Compound 8], the “dissolved in water (visual inspection)” value in data set [1] (setting [3]) is reported as “yes”; in data set [1] (setting [4]), “yes”; in data set [1] (setting [5]), “yes”; in data set [1] (setting [6]) it was “no”; in data set [1] (setting [7]) it was “no”.

For the molecule `O=C(O)CCCCC(=O)N1Cc2ccccc2C#Cc2ccccc21` [Compound 31], the “dissolved in water (visual inspection)” value in data set [1] (setting [3]), in data set [1] (setting [4]), in data set [1] (setting [5]), in data set [1] (setting [6]) and in data set [1] (setting [7]) was “no” throughout. Besides, the “Retention Time” value in data set [2] came to 15.18 min.
